Patent US11447465B2, “Pharmaceutical compounds for treatment of medical disorders” (Achillion Pharmaceuticals, Inc., priority 2017, dated 2022)

Target: Human Factor D (Homo sapiens (Human), UniProt P00746)
Test: Human Factor D Assay
Type: biochemical
Conditions: Table 5; Human Factor D 80 nM, substrate Z-L-Lys-SBzl; read-out: IC50 (Stars)
Protocol: Human Factor D (purified from human serum, Complement Technology, Inc.) at 80 nM final concentration is incubated with test compound at various concentrations for 5 min at room temperature in 50 mM Tris, 1M NaCl, pH 7.5. A synthetic substrate Z-L-Lys-SBzl and DTNB (Ellman's reagent) are added to final concentrations of 100 μM each. Absorbance at 405 nm (A405) is recorded at 30 second intervals for 30 min using a microplate spectrophotometer. IC50 values are calculated by nonlinear regression of Complement Factor D reaction rates as a function of test compound concentration.

Sequence of Human Factor D (P00746 26-253): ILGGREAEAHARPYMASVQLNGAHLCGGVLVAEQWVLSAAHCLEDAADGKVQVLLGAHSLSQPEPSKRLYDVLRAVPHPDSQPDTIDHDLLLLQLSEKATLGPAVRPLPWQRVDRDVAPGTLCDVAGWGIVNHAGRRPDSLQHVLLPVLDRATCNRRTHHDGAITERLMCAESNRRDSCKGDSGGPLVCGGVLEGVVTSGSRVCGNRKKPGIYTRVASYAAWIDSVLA

Row | SMILES | IC50
1 | CC(=O)c1nn(CC(=O)N2C[C@H]3C[C@H]3[C@H]2C(=O)Nc2nc(Br)ccc2C)c2cc(C)sc12 [Compound T-2, (1R,2S,5S)-3-(2-(3-acetyl-5-methyl-1H-thieno[3,2-c]pyrazol-1-yl)acetyl)-N-(6-bromo-3-methylpyridin-2-yl)-3-azabicyclo[3.10]hexane-2-carboxamide] | < 1 µM
2 | CC(=O)c1nn(CC(=O)N2C[C@H](F)C[C@H]2C(=O)Nc2cccc(Br)n2)c2ccc(S(C)(=N)=O)cc12 (stereo partly drawn) [Compound T-3, (2S,4R)-1-(2-(3-acetyl-5-(S-methylsulfonimidoyl)-1H-indazol-1-yl)acetyl)-N-(6-bromopyridin-2-yl)-4-fluoropyrrolidine-2-carboxamide] | < 1 µM
3 | CC(=O)c1nn(CC(=O)N2C[C@H](F)C[C@H]2C(=O)Nc2cccc(Br)n2)c2cc(/S(C)=N/C(=O)C(F)(F)F)ccc12 (stereo partly drawn) [Compound T-4, (2S,4R)-1-(2-(3-acetyl-6-((E)-S-methyl-N-(2,2,2-trifluoroacetyl)sulfinimidoyl)-1H-indazol-1-yl)acetyl)-N-(6-bromopyridin-2-yl)-4-fluoropyrrolidine-2-carboxamide] | < 1 µM
4 | CC(=O)c1nn(CC(=O)N2C[C@H](F)C[C@H]2C(=O)Nc2cccc(Br)n2)c2cc(S(C)(=N)=O)ccc12 (stereo partly drawn) [Compound T-5, (2S,4R)-1-(2-(3-acetyl-6-(S-methylsulfonimidoyl)-1H-indazol-1-yl)acetyl)-N-(6-bromopyridin-2-yl)-4-fluoropyrrolidine-2-carboxamide] | < 1 µM
5 | CC(=O)c1nn(CC(=O)N2[C@H](C(=O)Nc3cccc(Br)n3)C[C@@]3(C)C[C@@H]23)c2cc(S(C)(=N)=O)ccc12 (stereo partly drawn) [Compound T-6, (1R,3S,5R)-2-(2-(3-acetyl-6-(S-methylsulfonimidoyl)-1H-indazol-1-yl)acetyl)-N-(6-bromopyridin-2-yl)-5-methyl-2-azabicyclo[3.1.0]hexane-3-carboxamide] | < 1 µM
6 | CC(=O)c1nn(CC(=O)N2C[C@H]3C[C@H]3[C@H]2C(=O)Nc2cccc(Br)n2)c2cc(S(C)(=N)=O)ccc12 (stereo partly drawn) [Compound T-7, (1R,2S,5S)-3-(2-(3-acetyl-6-(S-methylsulfonimidoyl)-1H-indazol-1-yl)acetyl)-N-(6-bromopyridin-2-yl)-3-azabicyclo[3.1.0]hexane-2-carboxamide] | < 1 µM
7 | CC(=O)c1nn(CC(=O)N2C[C@H](F)C[C@H]2C(=O)NCC23C4C5C6C4C2C6C53)c2ccccc12 (stereo partly drawn) [Compound T-8, (2S,4R)-1-(2-(3-acetyl-1H-indazol-1-yl)acetyl)-N-(cuban-1-ylmethyl)-4-fluoropyrrolidine-2-carboxamide] | 1 to 10 µM
8 | CC(=O)c1nn(CC(=O)N2[C@H](C(=O)Nc3nc(Br)ccc3C)C[C@@]3(C)C[C@@H]23)c2ccc(NC(=O)C3CCCCC3(F)F)cc12 (stereo partly drawn) [Compound T-9, (1R,3S,5R)-2-(2-(3-acetyl-5-(2,2-difluorocyclohexane-1-carboxamido)-1H-indazol-1-yl)acetyl)-N-(6-bromo-3-methylpyridin-2-yl)-5-methyl-2-azabicyclo[3.10]hexane-3-carboxamide] | < 1 µM
9 | CC(=O)c1nn(CC(=O)N2C[C@H]3C[C@H]3[C@H]2C(=O)Nc2nc(Br)ccc2C2CC2)c2cc(C)sc12 [Compound T-10, (1R,2S,5S)-3-(2-(3-acetyl-5-methyl-1H-thieno[3,2-c]pyrazol-1-yl)acetyl)-N-(6-bromo-3-cyclopropylpyridin-2-yl)-3-azabicyclo[3.1.0]hexane-2-carboxamide] | < 1 µM
10 | CC(=O)c1nn(CC(=O)N2C[C@H](F)C[C@H]2C(=O)Nc2cccc(Br)n2)c2cc(S(C)(=O)=NC#N)ccc12 (stereo partly drawn) [Compound T-11] | < 1 µM
11 | CC(=O)c1nn(CC(=O)N2[C@H](C(=O)Nc3nc(Br)ccc3C)C[C@@]3(C)C[C@@H]23)c2ccccc12 [Compound T-13, (1R,3S,5R)-2-(2-(3-acetyl-1H-indazol-1-yl)acetyl)-N-(6-bromo-3-methylpyridin-2-yl)-5-methyl-2-azabicyclo[3.1.0]hexane-3-carboxamide] | < 1 µM
12 | CC(=O)c1ccn(CC(=O)N2C[C@H](F)C[C@H]2C(=O)Nc2cccc(Br)n2)n1 [Compound T-14, (2S,4R)-1-(2-(3-acetyl-1H-pyrazol-1-yl)acetyl)-N-(6-bromopyridin-2-yl)-4-fluoropyrrolidine-2-carboxamide] | < 1 µM
13 | NC(=O)c1cc(C(F)(F)F)n(CC(=O)N2C[C@H](F)C[C@H]2C(=O)Nc2cccc(Br)n2)n1 [Compound T-15, 1-(2-((2S,4R)-2-((6-bromopyridin-2-yl)carbamoyl)-4-fluoropyrrolidin-1-yl)-2-oxoethyl)-5-(trifluoromethyl)-1H-pyrazole-3-carboxamide] | < 1 µM
14 | COC(=O)c1cc(C(C)=O)cn1CC(=O)N1C[C@H](F)C[C@H]1C(=O)Nc1cccc(Br)n1 [Compound T-16, methyl 4-acetyl-1-(2-((2S,4R)-2-((6-bromopyridin-2-yl)carbamoyl)-4-fluoropyrrolidin-1-yl)-2-oxoethyl)-1H-pyrrole-2-carboxylate] | 1 to 10 µM
15 | CC(=O)c1cc(C(=O)O)n(CC(=O)N2C[C@H](F)C[C@H]2C(=O)Nc2cccc(Br)n2)c1 [Compound T-17, 4-acetyl-1-(2-((2S,4R)-2-((6-bromopyridin-2-yl)carbamoyl)-4-fluoropyrrolidin-1-yl)-2-oxoethyl)-1H-pyrrole-2-carboxylic acid] | < 1 µM
16 | CC(=O)c1cc(C(=O)N2CCC(F)(F)C2)n(CC(=O)N2C[C@H](F)C[C@H]2C(=O)Nc2cccc(Br)n2)c1 [Compound T-18, (2S,4R)-1-(2-(4-acetyl-2-(3,3-difluoropyrrolidine-1-carbonyl)-1H-pyrrol-1-yl)acetyl)-N-(6-bromopyridin-2-yl)-4-fluoropyrrolidine-2-carboxamide] | > 10 µM
17 | CC(=O)c1cc(C(=O)NCc2cnc(C)nc2)n(CC(=O)N2C[C@H](F)C[C@H]2C(=O)Nc2cccc(Br)n2)c1 [Compound T-19, 4-acetyl-1-(2-((2S,4R)-2-((6-bromopyridin-2-yl)carbamoyl)-4-fluoropyrrolidin-1-yl)-2-oxoethyl)-N-((2-methylpyrimidin-5-yl)methyl)-1H-pyrrole-2-carboxamide] | < 1 µM
18 | CC(=O)c1cn(CC(=O)N2C[C@H](F)C[C@H]2C(=O)Nc2cccc(Br)n2)c(C)n1 [Compound T-20, (2S,4R)-1-(2-(4-acetyl-2-methyl-1H-imidazol-1-yl)acetyl)-N-(6-bromopyridin-2-yl)-4-fluoropyrrolidine-2-carboxamide] | > 10 µM
19 | CCOC(=O)/C=C/c1cn(CC(=O)N2C[C@H](F)C[C@H]2C(=O)Nc2cccc(Br)n2)nc1C(N)=O [Compound T-22, (E)-ethyl 3-(1-(2-((2S,4R)-2-((6-bromopyridin-2-yl)carbamoyl)-4-fluoropyrrolidin-1-yl)-2-oxoethyl)-3-carbamoyl-1H-pyrazol-4-yl)acrylate] | 1 to 10 µM
20 | CC(=O)c1cc(C(N)=O)n(CC(=O)N2C[C@H](F)C[C@H]2C(=O)Nc2cccc(Br)n2)n1 [Compound T-23, 3-acetyl-1-(2-((2S,4R)-2-((6-bromopyridin-2-yl)carbamoyl)-4-fluoropyrrolidin-1-yl)-2-oxoethyl)-1H-pyrazole-5-carboxamide] | < 1 µM
21 | CC(=O)c1cc(C(=O)NCc2cscn2)n(CC(=O)N2C[C@H](F)C[C@H]2C(=O)Nc2cccc(Br)n2)n1 [Compound T-24, 3-acetyl-1-(2-((2S,4R)-2-((6-bromopyridin-2-yl)carbamoyl)-4-fluoropyrrolidin-1-yl)-2-oxoethyl)-N-(thiazol-4-ylmethyl)-1H-pyrazole-5-carboxamide] | < 1 µM
